Assay results as given in US8222240B2, “Use of substituted cyclopropane acid derivatives for producing drugs for use in the treatment of metabolic syndrome” (Sanofi-Aventis Deutschland GmbH, priority 2004, dated 2012).
pEC50: −log10 of the molar value.

Experiments:
[1] = molecular target: T1, GPCR HM74A (niacin receptor) (Homo sapiens, UniProt Q8TDS4); experiment: FLIPR in vitro functional assay, intracellular Ca2+ in recombinant HEK293 cells expressing HM74A and hybrid G-protein; type: cell-based; details: relative to 1 μM niacin = 100%
T1 construct: expressed in transfected cells; host or cells: HEK293
T1 sequence (Q8TDS4 whole entry): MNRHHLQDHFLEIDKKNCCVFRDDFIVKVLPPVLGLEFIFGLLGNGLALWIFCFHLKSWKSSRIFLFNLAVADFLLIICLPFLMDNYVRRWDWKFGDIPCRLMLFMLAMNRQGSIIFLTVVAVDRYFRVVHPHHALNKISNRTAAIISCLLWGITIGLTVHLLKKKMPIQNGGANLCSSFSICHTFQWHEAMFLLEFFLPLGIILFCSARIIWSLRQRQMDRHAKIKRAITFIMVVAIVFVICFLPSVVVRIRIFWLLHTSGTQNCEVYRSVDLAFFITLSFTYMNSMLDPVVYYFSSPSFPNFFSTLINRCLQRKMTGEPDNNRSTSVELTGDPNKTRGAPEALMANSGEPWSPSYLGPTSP
Description: in vitro functional assays with recombinant cells; function-testing assays were carried out by means of the FLIPR technique (“Fluorescence Imaging Plate Reader”, Molecular Devices Corp.).
For the investigations, cells were seeded into 96-well microtiter plates (60 000 cells/well) and allowed to grow over night. The medium was removed and the cells were incubated in buffer which contained the fluorescent dye Fluo-4. After this loading with dye, the cells were washed, test substance was added, and changes in the intracellular Ca^2+ concentration were measured in the FLIPR apparatus.

lipolysis = experiment: Inhibition of lipolysis on the whole animal (plasma FFA, glycerol, triglycerides after p.o. administration); type: in vivo, Wistar rats; parameters: FFA / Glycerol / Triglyceride: unit not given here; details: for FFA / Glycerol / Triglyceride: 3 mg/kg po, Wistar rats
Description: The effect was tested on the whole animal (mouse, rat, hamster or dog), after a fasting period (e.g. of about 16 hours the substance is administered (e.g. p.o., iv., i.p., s.c.) and, with or without additional stimulation of endogenous lipolysis (e.g. by a bolus injection of 2 mg/kg i.p. isoprenaline), the effect of the test substance on lipolysis was determined on the basis of the liberated free fatty acids (FFA), glycerol and triglycerides by obtaining a blood sample (e.g. by retroorbital blood sampling) e.g. 15 min, 30, 60, 120 etc minutes after p.o. administration, and analyzing by standard methods of clinical chemistry (e.g. L. Thomas: Labor und Diagnose, 2nd edition, Medizinische Verlagsgesellschaft, Marburg/L. 1984; ISBN 3-921320-10-9)). The inhibition of lipolysis by the inhibitors is analyzed by comparing with the rate of lipolysis in correspondingly treated control animals.

Compound | pEC50 [1] | also measured
COC(=O)[C@@H]1C[C@H]1C(=O)O [Example 3, 1R-Methoxycarbonyl-2R-hydroxycarbonyl-cyclopropane] | 6.72 | –
CCCOC(=O)[C@@H]1C[C@H]1C(=O)O (racemic) [Example 11, 1RS-Propoxycarbonyl-2RS-hydroxycarbonyl-cyclopropane] | 5.67 | –
COC(=O)[C@@H]1C[C@H]1C(=O)O [Example 2, 1R-Methoxycarbonyl-2R-hydroxycarbonyl-cyclopropane] | 6.89 | –
COC(=O)[C@H]1C[C@H]1C(=O)OC [Example 4, Dimethyl cis-1,2-cyclopropanedicarboxylate] | < 4.52 | –
CCOC(=O)[C@@H]1C[C@H]1C(=O)O (racemic) [Example 10, 1RS-Ethoxycarbonyl-2RS-hydroxycarbonyl-cyclopropane] | 5.83 | –
COC(=O)[C@H]1C[C@@H]1C(=O)OC (relative stereo) [Example 5, Dimethyl trans-1,2-cyclopropanedicarboxylate] | < 4.52 | FFA (lipolysis; Time 0): 0.47; Glycerol (lipolysis; Time 0): 87; Triglyceride (lipolysis; Time 0): 0.45; FFA (lipolysis; Time 15): 0.17; Glycerol (lipolysis; Time 15): 39; Triglyceride (lipolysis; Time 15): 0.45; FFA (lipolysis; Time 30): 0.13; Glycerol (lipolysis; Time 30): 33; Triglyceride (lipolysis; Time 30): 0.26; FFA (lipolysis; Time 60): 0.11; Glycerol (lipolysis; Time 60): 28; Triglyceride (lipolysis; Time 60): 0.15; FFA (lipolysis; Time 120): 0.25; Glycerol (lipolysis; Time 120): 57; Triglyceride (lipolysis; Time 120): 0.13; lipolysis (reduction in free fatty acids (FFA), glycerol and triglycerides) (lipolysis; doses of from 0.3 to 30 mg/kg po): distinctly reduced
CCOC(=O)[C@@H]1C[C@H]1C(=O)OCC (relative stereo) [Example 8, Diethyl trans-1,2-cyclopropanedicarboxylate] | < 4.52 | –
C=CCOC(=O)[C@@H]1C[C@H]1C(=O)O (racemic) [Example 17, 1RS-allyloxycarbonyl-2RS-hydroxycarbonyl-cyclopropane] | 5.55 | –
C#CCOC(=O)[C@@H]1C[C@H]1C(=O)O (racemic) [Example 18, 1RS-Propargyloxycarbonyl-2RS-hydroxycarbonyl-cyclopropane] | 5.82 | –
CCCCOC(=O)[C@@H]1C[C@H]1C(=O)O (racemic) [Example 12, 1RS-Butoxycarbonyl-2RS-hydroxycarbonyl-cyclopropane] | 6.17 | –
CC(C)(C)OC(=O)[C@H]1[C@H](C(=O)O)C1(C)C (racemic) [Example 20, 1RS-tertButoxycarbonyl-2RS-hydroxycarbonyl-3,3-dimethyl-cyclopropane] | < 4.52 | –
CC#CCOC(=O)[C@@H]1C[C@H]1C(=O)O (racemic) [Example 19, 1RS-Butinyloxycarbonyl-2RS-hydroxycarbonyl-cyclopropane] | 5.79 | –
COC(=O)[C@H]1[C@H](C(=O)O)C1(C)C (racemic) [Example 9, 1RS-Methoxycarbonyl-2RS-hydroxycarbonyl-3,3-dimethyl-cyclopropane] | < 4.52 | –
COC(=O)[C@@H]1C[C@H]1C(=O)O [Example 1, 1R-Methoxycarbonyl-2R-hydroxycarbonyl-cyclopropane] | 7.15 | –
O=C(O)[C@@H]1C[C@H]1C(=O)OCC1CCCCC1 (racemic) [Example 15, 1RS-Cyclohexyl-methyloxycarbonyl-2RS-hydroxycarbonyl-cyclopropane] | < 4.52 | –
CCCCCOC(=O)[C@@H]1C[C@H]1C(=O)O (racemic) [Example 13, 1RS-Pentoxycarbonyl-2RS-hydroxycarbonyl-cyclopropane] | 5.79 | –
COC(=O)[C@@H]1C[C@H]1C(=O)O (racemic) [Example 7, 1RS-Methoxycarbonyl-2RS-hydroxycarbonyl-cyclopropane] | 6.20 | –
CC(C)COC(=O)[C@@H]1C[C@H]1C(=O)O (racemic) [Example 16, 1RS-isobutoxycarbonyl-2RS-hydroxycarbonyl-cyclopropane] | < 4.52 | –
CC(C)OC(=O)[C@@H]1C[C@H]1C(=O)O (racemic) [Example 14, 1RS-iso-Propoxycarbonyl-2RS-hydroxycarbonyl-cyclopropane] | < 4.52 | –
COC(=O)[C@H]1C[C@]1(C)C(=O)OC (relative stereo) [Example 6, Dimethyl 1-methyl-trans-cyclopropane-1,2-dicarboxylate] | < 4.52 | –
